Measured values as given in patent publication US8722849B2, “Polypeptides” (Novo Nordisk A/S, priority 2011, dated 2014).
≈ marks a conversion by molar mass, not a printed value. Like-named read-outs stand apart in the source and are kept apart here. Starred links: 1 amine or outer side, 2 acyl side, 3 side chain; linkers in the order of their positions; H or OH if unused. Positions of bridges follow the written chain, without caps; N, C: chain ends. Residues, ends and D or L forms follow the SMILES beside them. *: point of attachment. C20 diacid = O=C(O)CCCCCCCCCCCCCCCCCCC(=O)*; γGlu = O=C(O)[C@H](CCC(=O)[*:2])N[*:1]

Columns and labels:
[1] = target: T1, human amylin receptor (amylin 3(a) receptor: human calcitonin receptor + RAMP-3) (Homo sapiens, UniProt O60896+P30988); test: Assay (II)a functional CRE-luciferase assay, human amylin receptor; assay type: cell-based; conditions: Table 2; BHK amylin 3(a)-receptor/CRE-luc cells
T1 construct: expressed in transfected cells; host or cells: BHK570
T1 sequence (P30988 25-474): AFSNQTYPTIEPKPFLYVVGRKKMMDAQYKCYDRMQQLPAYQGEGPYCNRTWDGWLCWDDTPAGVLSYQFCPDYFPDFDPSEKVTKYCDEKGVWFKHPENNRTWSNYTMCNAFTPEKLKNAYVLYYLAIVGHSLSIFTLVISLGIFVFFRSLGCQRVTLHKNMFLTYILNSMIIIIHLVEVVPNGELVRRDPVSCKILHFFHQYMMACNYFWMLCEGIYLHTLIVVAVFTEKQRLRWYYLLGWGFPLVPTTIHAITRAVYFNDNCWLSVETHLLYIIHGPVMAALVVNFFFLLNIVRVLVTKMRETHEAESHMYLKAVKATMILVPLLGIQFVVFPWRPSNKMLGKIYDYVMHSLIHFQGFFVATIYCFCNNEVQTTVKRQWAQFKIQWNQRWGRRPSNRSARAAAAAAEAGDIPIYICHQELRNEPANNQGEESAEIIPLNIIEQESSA
T1 sequence (O60896 24-148 partner): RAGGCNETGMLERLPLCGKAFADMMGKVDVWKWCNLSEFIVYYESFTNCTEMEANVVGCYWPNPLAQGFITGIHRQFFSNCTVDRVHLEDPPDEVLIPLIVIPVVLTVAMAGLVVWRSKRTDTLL

[2] = target: T2, human calcitonin receptor (Homo sapiens, UniProt P30988); test: Assay (II)a functional CRE-luciferase assay, human calcitonin receptor; assay type: cell-based; conditions: Table 7; human calcitonin (CTa) receptor
T2 construct: expressed in transfected cells; host or cells: BHK570
T2 sequence (P30988 25-474): T1 sequence (P30988 25-474)

[3] = target: T3, rat calcitonin (a) receptor (Rattus norvegicus, UniProt P32214); test: Assay (II)b functional cAMP FlashPlate assay, rat calcitonin receptor; assay type: cell-based; conditions: Table 11; read-out: CTa receptor rat EC50
T3 construct: expressed in transfected cells; host or cells: BHK tk'ts 13
T3 sequence (P32214 25-479 isoform P32214-2 limits assumed): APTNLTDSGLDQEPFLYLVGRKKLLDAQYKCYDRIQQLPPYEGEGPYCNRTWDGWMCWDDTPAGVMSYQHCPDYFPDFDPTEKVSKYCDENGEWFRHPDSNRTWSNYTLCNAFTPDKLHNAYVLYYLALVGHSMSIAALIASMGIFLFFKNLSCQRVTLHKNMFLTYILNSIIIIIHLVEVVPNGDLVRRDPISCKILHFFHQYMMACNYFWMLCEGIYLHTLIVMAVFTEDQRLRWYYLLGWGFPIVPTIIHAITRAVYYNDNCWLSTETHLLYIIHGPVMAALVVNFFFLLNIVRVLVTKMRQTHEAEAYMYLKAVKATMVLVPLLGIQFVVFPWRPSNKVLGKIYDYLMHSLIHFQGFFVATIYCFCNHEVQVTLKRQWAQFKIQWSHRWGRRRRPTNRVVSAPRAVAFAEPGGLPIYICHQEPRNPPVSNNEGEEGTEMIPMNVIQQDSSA
How it was run: (§1)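 cAMP accumulation in transiently transfected BHK tk'ts 13 cells, 100.000 cells/well, expressing rat calcitonin(a) receptor or its RAMP3 co-expression form (amylin 3(a)): 30 min stimulation with IBMX, 24 hours post-transfection. Readout by competition of cellular versus radiolabelled cAMP in FlashPlates, scintillation counted after 3 h.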

[4] = Assay (IX) pK, determination of T½ in mini-pig; assay type: in vivo, Göttingen mini-pigs; conditions: male, Göttingen, iv, 2 nmol/kg; minipig; plasma terminal half-life
[5] = Assay (IV) determination of solubility; assay type: physicochemical
How it was run: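 Eight 100 mM buffers (glycylglycine pH 3.0–5.0, bistrispropane pH 6.0–8.0) each received an equal volume of polypeptide dissolved in water at ~500 nmol/ml. Soluble polypeptide was measured by HPLC following 18 hours at room temperature and centrifugation.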

[6] = target: T4, rat amylin 3(a) receptor (rat calcitonin(a) receptor + rat RAMP3) (Rattus norvegicus, UniProt P32214+Q9JJ73); test: Assay (II)b functional cAMP FlashPlate assay, rat amylin receptor; assay type: cell-based; conditions: Table 11
T4 construct: expressed in transfected cells; host or cells: BHK tk'ts 13
T4 sequence (P32214 25-479 isoform P32214-2 limits assumed): T3 sequence (P32214 25-479 isoform P32214-2 limits assumed)
T4 sequence (Q9JJ73 23-147 partner): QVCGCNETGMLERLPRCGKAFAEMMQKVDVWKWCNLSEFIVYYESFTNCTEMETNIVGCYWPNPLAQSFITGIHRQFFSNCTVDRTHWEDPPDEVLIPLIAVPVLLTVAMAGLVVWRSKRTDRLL
How it was run: as §1

amylin receptor = target: T5, amylin receptor (Homo sapiens, UniProt P30988); conditions: amylin receptor vs calcitonin receptor, cited from earlier work
T5 sequence (P30988 25-474): T1 sequence (P30988 25-474)

[7] = cited from earlier work
[8] = bistrispropane buffer, pH 6, pH 6.0, read-out: Solubility pH 6.0
[9] = bistrispropane buffer, pH 6.5, pH 6.5, read-out: Solubility pH 6.5
[10] = bistrispropane buffer, pH 7, pH 7.0, 18 hours at room temperature, Table 3, read-out: Solubility pH 7.0
[11] = bistrispropane buffer, pH 7, pH 7.0, Table 8, read-out: Solubility pH 7.0
[12] = bistrispropane buffer, pH 7, pH 7.0, Table 9, read-out: Solubility pH 7.0
[13] = bistrispropane buffer, pH 7, pH 7.0, read-out: Solubility pH 7.0
[14] = bistrispropane buffer, pH 7.5, pH 7.5, Table 9, read-out: Solubility pH 7.5
[15] = bistrispropane buffer, pH 7.5, pH 7.5, read-out: Solubility pH 7.5
[16] = bistrispropane buffer, pH 8, pH 8.0, read-out: Solubility pH 8.0
[17] = glycylglycine buffer, pH 3, pH 3.0, read-out: Solubility pH 3.0
[18] = glycylglycine buffer, pH 4, pH 4.0, 18 hours at room temperature, Table 2, read-out: Solubility pH 4.0
[19] = glycylglycine buffer, pH 4, pH 4.0, read-out: Solubility pH 4.0
[20] = glycylglycine buffer, pH 5, pH 5.0, read-out: Solubility pH 5.0

Row | Compound | EC50 [1] [nM] | EC50 [2] [nM] | EC50 [3] [nM] | half-life [4] [h] | solubility at 18 h [5, 8] [µM] | solubility at 18 h [5, 9] [µM] | solubility at 18 h [5, 10] [µM] | solubility at 18 h [5, 11] [µM] | solubility at 18 h [5, 12] [µM] | solubility at 18 h [5, 13] [µM] | solubility at 18 h [5, 14] [µM] | solubility at 18 h [5, 15] [µM] | solubility at 18 h [5, 16] [µM] | solubility at 18 h [5, 17] [µM] | solubility at 18 h [5, 18] [µM] | solubility at 18 h [5, 19] [µM] | solubility at 18 h [5, 20] [µM] | EC50 [6] [nM] | further results
1 | CC[C@H](C)[C@H](NC(=O)[C@@H]1CCCN1C(=O)CNC(=O)[C@H](Cc1ccccc1)NC(=O)[C@H](CC(N)=O)NC(=O)[C@H](CC(N)=O)NC(=O)[C@H](CO)NC(=O)[C@H](CO)NC(=O)[C@H](Cc1c[nH]cn1)NC(=O)[C@H](Cc1cnc[nH]1)NC(=O)[C@H](CC(C)C)NC(=O)[C@H](Cc1ccccc1)NC(=O)[C@H](CCC(=O)O)NC(=O)[C@H](C)NC(=O)[C@H](CC(C)C)NC(=O)[C@H](CCCNC(=N)N)NC(=O)[C@H](CCC(N)=O)NC(=O)[C@@H](NC(=O)[C@H](C)NC(=O)[C@@H]1CSSC[C@H](NC(=O)[C@H](CCCCN)NC(=O)CC[C@H](NC(=O)CCCCCCCCCCCCCCCCCCC(=O)O)C(=O)O)C(=O)N[C@@H](CC(N)=O)C(=O)N[C@@H]([C@@H](C)O)C(=O)N[C@@H](C)C(=O)N[C@@H]([C@@H](C)O)C(=O)N1)[C@@H](C)O)C(=O)N[C@@H](CC(C)C)C(=O)N1CCC[C@H]1C(=O)N1CCC[C@H]1C(=O)N[C@H](C(=O)N[C@@H](CC(N)=O)C(=O)N[C@H](C(=O)NCC(=O)N[C@@H](CO)C(=O)N[C@@H](CC(N)=O)C(=O)N[C@H](C(=O)N1CCC[C@H]1C(N)=O)[C@@H](C)O)C(C)C)[C@@H](C)O [Example 52, N-alpha-[(S)-4-Carboxy-4-(19-carboxynonadecanoylamino)butyryl]-[Glu14,His17,Pro37]-pramlintide] ({C20 diacid-γGlu}-KCNTATCATQRLAEFLHHSSNNFGPILPPTNVGSNTP-NH2; disulfide 2-7) | 0.062 | 0.0537 | 0.076 | 105 | > 200 | > 200 | > 200 | > 200 | > 200 | > 200 | > 200 | > 200 | > 200 | > 200 | > 200 | > 200 | > 200 | 0.16 | 
2 | CC[C@H](C)[C@H](NC(=O)[C@@H]1CCCN1C(=O)CNC(=O)[C@H](Cc1ccccc1)NC(=O)[C@H](CC(N)=O)NC(=O)[C@H](CC(N)=O)NC(=O)[C@H](CO)NC(=O)[C@H](CO)NC(=O)[C@H](Cc1c[nH]cn1)NC(=O)[C@H](Cc1cnc[nH]1)NC(=O)[C@H](CC(C)C)NC(=O)[C@H](Cc1ccccc1)NC(=O)[C@H](CCC(=O)O)NC(=O)[C@H](C)NC(=O)[C@H](CC(C)C)NC(=O)[C@H](CCCNC(=N)N)NC(=O)[C@H](CCC(N)=O)NC(=O)[C@@H](NC(=O)[C@H](C)NC(=O)[C@@H]1CSSC[C@H](NC(=O)[C@H](CCCCN)NC(=O)CC[C@H](NC(=O)CCCCCCCCCCCCCCCCCCC(=O)O)C(=O)O)C(=O)N[C@@H](CC(N)=O)C(=O)N[C@@H]([C@@H](C)O)C(=O)N[C@@H](C)C(=O)N[C@@H]([C@@H](C)O)C(=O)N1)[C@@H](C)O)C(=O)N[C@@H](CC(C)C)C(=O)N1CCC[C@H]1C(=O)N1CCC[C@H]1C(=O)N[C@H](C(=O)N[C@@H](CC(N)=O)C(=O)N[C@H](C(=O)NCC(=O)N[C@@H](CO)C(=O)N[C@@H](Cc1cnc[nH]1)C(=O)N[C@H](C(=O)N[C@@H](Cc1ccc(O)cc1)C(N)=O)[C@@H](C)O)C(C)C)[C@@H](C)O [Example 55, N-alpha-[(S)-4-Carboxy-4-(19-carboxynonadecanoylamino)butyryl]-[Glu14,His17,His35]-pramlintide] ({C20 diacid-γGlu}-KCNTATCATQRLAEFLHHSSNNFGPILPPTNVGSHTY-NH2; disulfide 2-7) | 0.152 | 0.163 | 0.673 | 73 | > 200 | 146 (≈ 654 µg/mL) | 102 (≈ 459 µg/mL) |  |  | 102 (≈ 459 µg/mL) |  | 108 (≈ 486 µg/mL) | 146 (≈ 654 µg/mL) | > 200 | > 200 | > 200 | > 200 | 0.262 | 
3 | CC[C@H](C)[C@H](NC(=O)[C@@H]1CCCN1C(=O)CNC(=O)[C@H](Cc1ccccc1)NC(=O)[C@H](CC(N)=O)NC(=O)[C@H](CC(N)=O)NC(=O)[C@H](CO)NC(=O)[C@H](CO)NC(=O)[C@H](Cc1c[nH]cn1)NC(=O)[C@H](CCCNC(=N)N)NC(=O)[C@H](CC(C)C)NC(=O)[C@H](Cc1ccccc1)NC(=O)[C@H](CCC(=O)O)NC(=O)[C@H](C)NC(=O)[C@H](CC(C)C)NC(=O)[C@H](CCCNC(=N)N)NC(=O)[C@H](CCC(N)=O)NC(=O)[C@@H](NC(=O)[C@H](C)NC(=O)[C@@H]1CSSC[C@H](NC(=O)[C@H](CCCCN)NC(=O)CC[C@H](NC(=O)CCCCCCCCCCCCCCCCCCC(=O)O)C(=O)O)C(=O)N[C@@H](CC(N)=O)C(=O)N[C@@H]([C@@H](C)O)C(=O)N[C@@H](C)C(=O)N[C@@H]([C@@H](C)O)C(=O)N1)[C@@H](C)O)C(=O)N[C@@H](CC(C)C)C(=O)N1CCC[C@H]1C(=O)N1CCC[C@H]1C(=O)N[C@H](C(=O)N[C@@H](CC(N)=O)C(=O)N[C@H](C(=O)NCC(=O)N[C@@H](CO)C(=O)N[C@@H](Cc1cnc[nH]1)C(=O)N[C@H](C(=O)N[C@@H](Cc1ccc(O)cc1)C(N)=O)[C@@H](C)O)C(C)C)[C@@H](C)O [Example 57, N-alpha-[(S)-4-Carboxy-4-(19-carboxynonadecanoylamino)butyryl]-[Glu14,Arg17,His35]-pramlintide] ({C20 diacid-γGlu}-KCNTATCATQRLAEFLRHSSNNFGPILPPTNVGSHTY-NH2; disulfide 2-7) | 0.111 | 0.387 | 2.84 | 68 | > 200 | > 200 | > 200 | > 200 | > 200 | > 200 | 121 (≈ 544 µg/mL) | 121 (≈ 544 µg/mL) |  | > 200 | > 200 | > 200 | > 200 | 0.511 | solubility at 18 h ([5]; pH 8.0, read-out: Solubility pH 8.0): 80 µM (≈ 360 µg/mL)
4 | pramlintide |  |  |  |  |  |  |  |  |  |  |  |  |  |  |  |  |  |  | potency on the amylin receptor relative to the calcitonin receptor (amylin receptor): 14 times; potency on the amylin receptor relative to the calcitonin receptor (amylin receptor; listed as Pramlintide): approximately 14 times
5 | salmon calcitonin |  |  |  |  |  |  |  |  |  |  |  |  |  |  |  |  |  |  | plasma half-life [7]: about 45 minutes
